Data on 9 molecules can be found in ChEMBL document CHEMBL1649512, “Reduced susceptibility to cefepime among Escherichia coli clinical isolates producing novel variants of CMY-2 beta-lactamase” (2009).

In brackets after ≈: the same amount, converted by molar mass. Bounds are passed on as bounds.

Usually MIC stands for the lowest concentration found to suppress growth.

Common to all, as to type: functional
The subject of assay [1] is Escherichia coli. Description: Antibacterial activity against Escherichia coli DH10B harboring plasmid BCSK carrying beta-lactamase CMY-2 gene by Etest method. Particulars: K-12 DH10B.
In assay [2] the test system is Escherichia coli. Briefly: Antibacterial activity against Escherichia coli 1285 harboring beta-lactamase CMY-33 gene by Etest method.
Assay [3] deals with Escherichia coli. Description: Antibacterial activity against Escherichia coli 34943 harboring beta-lactamase CMY-44 gene by Etest method.
The test system of assay [4] is Escherichia coli. Briefly: Antibacterial activity against Escherichia coli DH10B harboring plasmid BCSK carrying beta-lactamase CMY-33 gene by Etest method. Particulars: K-12 DH10B.
Assay [5] relates to Escherichia coli. Description: Antibacterial activity against Escherichia coli DH10B harboring plasmid BCSK carrying beta-lactamase CMY-44 gene by Etest method. The conditions noted are these: K-12 DH10B.
The subject of assay [6] is Escherichia coli. Description: Antibacterial activity against Escherichia coli DH10B harboring plasmid BCSK by Etest method. The conditions noted are these: K-12 DH10B.
In assay [7] the test system is Escherichia coli. Description: Antibacterial activity against Escherichia coli YD006 harboring beta-lactamase CMY-33 gene by Etest method.

For the molecule `CC1(C)S[C@@H]2[C@H](NC(=O)[C@H](N)c3ccccc3)C(=O)N2[C@H]1C(=O)O` [AMPICILLIN], the MIC in the assay with Escherichia coli [1] was above 256 µg/mL; against Escherichia coli [2], above 256 µg/mL; in the assay on Escherichia coli [3], above 256 µg/mL; in the assay on Escherichia coli [4] it was above 256 µg/mL; against Escherichia coli [5], above 256 µg/mL; in the assay with Escherichia coli [6], 3 µg/mL (≈ 8.59 µM). In the assay with Escherichia coli [7], this molecule registered a minimal inhibitory concentration (MIC) of 128 µg/mL (≈ 366 µM).

For `C[C@H]1[C@H](NC(=O)/C(=N\OC(C)(C)C(=O)O)c2csc(N)n2)C(=O)N1S(=O)(=O)O` [AZTREONAM], the MIC against Escherichia coli [1] is 8 µg/mL (≈ 18.4 µM); against Escherichia coli [2], 64 µg/mL (≈ 147 µM); with Escherichia coli [3], 24 µg/mL (≈ 55.1 µM); in the assay with Escherichia coli [4], 16 µg/mL (≈ 36.7 µM); against Escherichia coli [5], 4 µg/mL (≈ 9.19 µM); against Escherichia coli [7] it was 6 µg/mL (≈ 13.8 µM).

Regarding `CO/N=C(\C(=O)N[C@@H]1C(=O)N2C(C(=O)[O-])=C(C[N+]3(C)CCCC3)CS[C@H]12)c1csc(N)n1` [CEFEPIME], the MIC against Escherichia coli [1] is 0.25 µg/mL (≈ 0.52 µM); in the assay with Escherichia coli [2], 96 µg/mL (≈ 200 µM); against Escherichia coli [3], 32 µg/mL (≈ 66.6 µM); in the assay on Escherichia coli [4] it was 6 µg/mL (≈ 12.5 µM); against Escherichia coli [5], 3 µg/mL (≈ 6.24 µM); with Escherichia coli [6], 0.032 µg/mL (≈ 0.0666 µM). The molecule also had an MIC with Escherichia coli [7] of 6 µg/mL (≈ 12.5 µM).

Turning to `CO/N=C(\C(=O)N[C@@H]1C(=O)N2C(C(=O)O)=C(COC(C)=O)CS[C@H]12)c1csc(N)n1` [CEFOTAXIME], the MIC in the assay with Escherichia coli [1] is 16 µg/mL (≈ 35.1 µM); with Escherichia coli [2], above 256 µg/mL; against Escherichia coli [3], 32 µg/mL (≈ 70.3 µM); in the assay on Escherichia coli [4] it was 12 µg/mL (≈ 26.3 µM); against Escherichia coli [5], 8 µg/mL (≈ 17.6 µM); against Escherichia coli [6], 0.064 µg/mL (≈ 0.141 µM). The same molecule returned an MIC against Escherichia coli [7] of 8 µg/mL (≈ 17.6 µM).

Take `CO[C@@]1(NC(=O)Cc2cccs2)C(=O)N2C(C(=O)O)=C(COC(N)=O)CS[C@@H]21` [CEFOXITIN]: the MIC in the assay with Escherichia coli [1] was above 256 µg/mL; with Escherichia coli [2], above 256 µg/mL; against Escherichia coli [3], above 256 µg/mL; in the assay on Escherichia coli [4], 24 µg/mL (≈ 56.1 µM); with Escherichia coli [5] it was 32 µg/mL (≈ 74.9 µM); with Escherichia coli [6], 6 µg/mL (≈ 14 µM). Besides, inhibition of growth with Escherichia coli [7] (MIC) required 24 µg/mL (≈ 56.1 µM).

Consider `CC(C)(O/N=C(\C(=O)N[C@@H]1C(=O)N2C(C(=O)[O-])=C(C[n+]3ccccc3)CS[C@H]12)c1csc(N)n1)C(=O)O` [CEFTAZIDIME], for which the MIC is above 256 µg/mL in the assay with Escherichia coli [1]; above 256 µg/mL in the assay on Escherichia coli [2]; above 256 µg/mL in the assay with Escherichia coli [3]; above 256 µg/mL in the assay on Escherichia coli [4]; above 256 µg/mL in the assay with Escherichia coli [5]; 0.5 µg/mL (≈ 0.915 µM) in the assay with Escherichia coli [6]. Besides, the MIC with Escherichia coli [7] is above 256 µg/mL.

Turning to `CO/N=C(\C(=O)N[C@@H]1C(=O)N2C(C(=O)O)=C(COC(N)=O)CS[C@H]12)c1ccco1` [CEFUROXIME], the MIC against Escherichia coli [1] is above 256 µg/mL; against Escherichia coli [2], above 256 µg/mL; in the assay with Escherichia coli [3] it was above 256 µg/mL; against Escherichia coli [4], 128 µg/mL (≈ 302 µM); in the assay with Escherichia coli [5] it was 64 µg/mL (≈ 151 µM); against Escherichia coli [6], 6 µg/mL (≈ 14.1 µM). In the assay with Escherichia coli [7], this molecule yielded an MIC of 96 µg/mL (≈ 226 µM).

With `C[C@@H](O)[C@H]1C(=O)N2C(C(=O)O)=C(S[C@@H]3CN[C@H](C(=O)Nc4cccc(C(=O)O)c4)C3)[C@H](C)[C@H]12` [ERTAPENEM], the MIC against Escherichia coli [1] worked out at 0.094 µg/mL (≈ 0.198 µM); against Escherichia coli [2], 1 µg/mL (≈ 2.1 µM); in the assay on Escherichia coli [3], 4 µg/mL (≈ 8.41 µM); in the assay on Escherichia coli [4], 0.032 µg/mL (≈ 0.0673 µM); with Escherichia coli [5], 0.064 µg/mL (≈ 0.135 µM); in the assay on Escherichia coli [6] it was 0.012 µg/mL (≈ 0.0252 µM). The molecule further came in with an MIC in the assay with Escherichia coli [7] of 0.064 µg/mL (≈ 0.135 µM).

`CCN1CCN(C(=O)N[C@@H](C(=O)N[C@@H]2C(=O)N3[C@@H]2SC(C)(C)[C@@H]3C(=O)O)c2ccccc2)C(=O)C1=O` [PIPERACILLIN]: the MIC with Escherichia coli [1] is 128 µg/mL (≈ 247 µM); in the assay with Escherichia coli [2], above 256 µg/mL; in the assay on Escherichia coli [3], above 256 µg/mL; against Escherichia coli [4], 64 µg/mL (≈ 124 µM); against Escherichia coli [5], 32 µg/mL (≈ 61.8 µM); against Escherichia coli [6], 2 µg/mL (≈ 3.86 µM). In the assay on Escherichia coli [7], the MIC was 12 µg/mL (≈ 23.2 µM).
